We go through 30 compounds from US11021468B2, “TGF-ß inhibitors” (Rigel Pharmaceuticals, Inc., priority 2015, dated 2021).

What is called IC50 is the concentration that inhibits the measured activity by half.

The subject of one test is TGF-β. As to the kind of experiment: AlphaScreen SureFire SMAD3 (p-Ser423/425) assay, TGF-β-stimulated (TGF-β pSMAD (MPC-11)). The format is cell-based. To be noted: p-SMAD-3 (Ser423/425). The source says: (§1) Example 2: AlphaScreen® SureFire® SMAD3 (p-Ser423/425) Assay
(§2) The p-SMAD-3 (Ser423/425) SureFire® assay has been designed to measure the phosphorylation of endogenous cellular p-SMAD-3 (Ser423/425) in cell lysates and is a system for the screening of both modulators of receptor activation (e.g. agonists and antagonists) as well as agents acting intracellularly, such as small molecule inhibitors of upstream events. The assay will measure p-SMAD-3 (Ser423/425) activation by either cloned or endogenous receptors, and can be applied to primary cells.
(§3) P-SMAD-3 (Ser423/425) SureFire® Assay Protocols
(§4) 96-well Assay Protocol for 293FT and RMS13 adherent cells can be carried out manually or in high throughput with liquid handling robots.
(§5) The cells (80 μL of cells for 96 well plates) were plated in collagen coated tissue culture plates in RPMI or FreeStyle medium (Invitrogen) and incubated overnight. For manual analysis, 6 plates for GDF8, 6 plates for TGFβ, and optionally 6 plates for Alk5ca(ALK5 constitutively active) were used.
(§6) The compound dilution plates were prepared as follows: 12 μL of DMSO was transferred into first column of 96-well plate, and 16 μL of DMSO was transferred into columns 2-12 of the 96-well plate. 12 μL of compound solution was transferred into first column of the DMSO-containing 96-well plate. Three-fold dilution was performed up to column 10 of the DMSO-containing 96-well plate.
(§7) The plate containing cells were treated with compounds for about 10 minutes, and then ligand was added. GDF8 or TGFb was added to plates to stimulate. 293FL cells were stimulated for 90 minutes at 37° C.; and RMS13 cells were stimulated for 60 minutes at 37° C. The medium was then removed from the cells, and 1× Lysis Buffer (about 25 μL) was added and the plate was gently agitated on plate shaker for 5-10 minutes.
(§8) The lysate (5 μL) was then placed into 384-well shallow plates avoiding the generation of bubbles. To this, the Reaction Buffer+Activation Buffer+AlphaScreen® Acceptor beads mixture (5 μL) was added. The plate was sealed with adhesive cover and shielded from light (e.g., with metal foil), and agitated gently on plate shaker for 2 hours at room temperature.
(§9) Dilution buffer+AlphaScreen® Donor beads (2 μL) was then added, and the plate was intubated on the plate shaker for an additional 1½ hours. After completion, the plate was read on Synergy-4 or Enspire plate reader, using AlphaScreen® pSMAD3® settings.
(§10) Representative results for inhibition of GDF8 (data=GDF pSMAD (MPC11) (μM)) and TGF-β (data=TGF-β pSMAD (MPC-11) (μM)) signaling are shown in Table 1: […]
A general note: Bead proximity is the source of the signal in Alpha formats.

In the next test the test system is GDF8. As to the kind of experiment: AlphaScreen SureFire SMAD3 (p-Ser423/425) assay, GDF8-stimulated (GDF pSMAD (MPC11)). The format is cell-based. Conditions: p-SMAD-3 (Ser423/425).
From the text: as §1, §2, §3, §4, §5, §6, §7, §8, §9, §10

Where [1] appears, read: Mus musculus, MPC-11, inhibition of TGF-β signaling.
Setting [2] is: Mus musculus, MPC-11, inhibition of GDF8 signaling.

Consider `Cc1cccc(-c2nccc(Nc3ccc4[nH]ncc4c3)n2)c1` [Compound 32, N-(2-(3-Methylphenyl)pyrimidin-4-yl)-1H-indazol-5-amine], for which the values for the IC50 in the test on TGF-β (setting [1]) and with GDF8 (setting [2]) were 553 nM and 116 nM, respectively.

Regarding `Fc1ccc(-c2nccc(Nc3ccc4[nH]ncc4c3)n2)cc1` [Compound 33, N-(2-(4-Fluorophenyl)pyrimidin-4-yl)-1H-indazol-5-amine], the IC50 in the test with TGF-β (setting [1]) came to 203 nM; in the test on GDF8 (setting [2]), 25.1 nM.

Take `Cc1ccccc1-c1ncc(F)c(Nc2ccc3[nH]ncc3c2)n1` [Compound 34, N-(5-Fluoro-2-(methylphenyl)pyrimidin-4-yl)-1H-indazol-5-amine]: the figures for the IC50 with TGF-β (setting [1]) and in the test with GDF8 (setting [2]) were 2340 nM and 427 nM, respectively.

`Fc1ccc(-c2ncc(F)c(Nc3ccc4[nH]ncc4c3)n2)cc1F` [Compound 35, N-(2-(3,4-Difluorophenyl)-5-fluoropyrimidin-4-yl)-1H-indazol-5-amine]: the IC50 was found to be 2000 nM in the test with TGF-β (setting [1]) and 258 nM in the test with GDF8 (setting [2]).

Take `Fc1cccc(-c2ncc(F)c(Nc3ccc4[nH]ncc4c3)n2)c1` [Compound 36, N-(5-Fluoro-2-(3-fluorophenyl)pyrimidin-4-yl)-1H-indazol-5-amine]: the IC50 with TGF-β (setting [1]) was 3060 nM; in the test on GDF8 (setting [2]) it was 555 nM.

Turning to `Fc1cnc(-c2ccccc2)nc1Nc1ccc2[nH]ncc2c1` [Compound 37, N-(5-Fluoro-2-phenylpyrimidin-4-yl)-1H-indazol-5-amine], the IC50 in the test on TGF-β (setting [1]) is 3260 nM; with GDF8 (setting [2]) it was 459 nM.

As to `Cc1cnc(-c2ccccc2F)nc1Nc1ccc2[nH]ncc2c1` [Compound 38, N-(2-(2-Fluorophenyl)-5-methylpyrimidin-4-yl)-1H-indazol-5-amine], the concentration for half-maximal inhibition (IC50) is 339 nM with TGF-β (setting [1]) and 125 nM in the test with GDF8 (setting [2]).

Regarding `Cc1ccccc1-c1ncc(C)c(Nc2ccc3[nH]ncc3c2)n1` [Compound 39, N-(2-(2-Methylphenyl)-5-methylpyrimidin-4-yl)-1H-indazol-5-amine], the IC50 was 436 nM with TGF-β (setting [1]) and 204 nM with GDF8 (setting [2]).

Consider `Cc1cnc(-c2ccc(F)c(F)c2)nc1Nc1ccc2[nH]ncc2c1` [Compound 40, N-(2-(3,4-Difluorophenyl)-5-methylpyrimidin-4-yl)-1H-indazol-5-amine], for which the values for the IC50 with TGF-β (setting [1]) and with GDF8 (setting [2]) were 174 nM and 58.6 nM, respectively.

As to `Cc1ccc(C)c(-c2ncc(C)c(Nc3ccc4[nH]ncc4c3)n2)c1` [Compound 41, N-(2-(2,5-Dimethylphenyl)-5-methylpyrimidin-4-yl)-1H-indazol-5-amine], the half-inhibitory concentration (IC50) in the test with TGF-β (setting [1]) came out at 168 nM; with GDF8 (setting [2]), 105 nM.

Take `Cc1cc(F)ccc1-c1nccc(Nc2ccc3[nH]ncc3c2)n1` [Compound 42, N-(2-(4-Fluoro-2-methylphenyl)pyrimidin-4-yl)-1H-indazol-5-amine]: the IC50 in the test on TGF-β (setting [1]) stood at 53.3 nM; in the test on GDF8 (setting [2]), 7.6 nM.

For `Cc1cc(-c2nccc(Nc3ccc4[nH]ncc4c3)n2)ccc1F` [Compound 43, N-(2-(4-Fluoro-3-methylphenyl)pyrimidin-4-yl)-1H-indazol-5-amine], the IC50 in the test with TGF-β (setting [1]) was found to be 185 nM; in the test on GDF8 (setting [2]) it was 41 nM.

`Nc1ccccc1-c1nccc(Nc2ccc3[nH]ncc3c2)n1` [Compound 44, N-(2-(2-Aminophenyl)pyrimidin-4-yl)-1H-indazol-5-amine]: the figures for the IC50 with TGF-β (setting [1]) and in the test with GDF8 (setting [2]) were 1840 nM and 209 nM, respectively.

As for `FC(F)(F)c1cccc(-c2nccc(Nc3ccc4[nH]ncc4c3)n2)c1` [Compound 45, N-(2-(3-Trifluoromethylphenyl)pyrimidin-4-yl)-1H-indazol-5-amine], the results for the IC50 in the test with TGF-β (setting [1]) and with GDF8 (setting [2]) were 4370 nM and 652 nM, respectively.

Regarding `COc1ccc(-c2nccc(Nc3ccc4[nH]ncc4c3)n2)c(C)c1` [Compound 46, N-(2-(4-Methoxy-2-methylphenyl)pyrimidin-4-yl)-1H-indazol-5-amine], the results for the IC50 in the test with TGF-β (setting [1]) and in the test on GDF8 (setting [2]) were 65.9 nM and 11 nM, respectively.

For the compound `COc1cc2nccc(Nc3ccnc(-c4ccc(F)cc4C)n3)c2cc1OC` [Compound 47, N-(2-(4-Fluoro-2-methylphenyl)pyrimidin-4-yl)-6,7-dimethoxyquinolin-4-amine], the IC50 in the test with TGF-β (setting [1]) stood at 44.4 nM; with GDF8 (setting [2]) it was 34.4 nM.

`Cc1ccc(F)c(-c2nccc(Nc3ccc4[nH]ncc4c3)n2)c1` [Compound 48, N-(2-(2-Fluoro-5-methylphenyl)pyrimidin-4-yl)-1H-indazol-5-amine]: the IC50 with TGF-β (setting [1]) came to 595 nM; with GDF8 (setting [2]), 192 nM.

In the case of `Cc1cc(-c2ncc(C)c(Nc3cnc4[nH]ncc4c3)n2)ccc1F` [Compound 49, N-(2-(4-Fluoro-3-methylphenyl)-5-methylpyrimidin-4-yl)-1H-pyrazolo[3,4-b]pyridin-5-amine], the IC50 came to 349 nM in the test with TGF-β (setting [1]) and 545 nM in the test with GDF8 (setting [2]).

As to `Fc1ccc(-c2nc(Nc3cnc4[nH]ncc4c3)c3cc[nH]c3n2)cc1` [Compound 50, N-(2-(4-Fluorophenyl)-7H-pyrrolo[2,3-d]pyrimidin-4-yl)-1H-pyrazolo[3,4-b]pyridin-5-amine], the IC50 stood at 3490 nM in the test on TGF-β (setting [1]) and 1050 nM in the test with GDF8 (setting [2]).

As for `Cc1cc(-c2ncc(C)c(Nc3cc4cn[nH]c4cc3C)n2)ccc1F` [Compound 51, N-(2-(4-Fluoro-3-methylphenyl)-5-methylpyrimidin-4-yl)-6-methyl-1H-indazol-5-amine], the IC50 worked out at 829 nM in the test on TGF-β (inhibition of TGF-β signaling) and 777 nM in the test on GDF8 (inhibition of GDF8 signaling).

Turning to `Cc1cccc(-c2ncc(C)c(Nc3cc4cn[nH]c4cc3C)n2)c1` [Compound 52, N-(2-(3-Methylphenyl)-5-methylpyrimidin-4-yl)-6-methyl-1H-indazol-5-amine], the IC50 was determined as 322 nM with TGF-β (setting [1]) and 234 nM with GDF8 (setting [2]).

For `Cc1cc2[nH]ncc2cc1Nc1nc(-c2ccc(F)cc2)ncc1C` [Compound 53, N-(2-(4-Fluorophenyl)-5-methylpyrimidin-4-yl)-6-methyl-1H-indazol-5-amine], the IC50 with TGF-β (setting [1]) turned out to be 543 nM; with GDF8 (setting [2]) it was 540 nM.

For the compound `Cc1cc2[nH]ncc2cc1Nc1nc(-c2ccc(F)c(F)c2)ncc1C` [Compound 54, N-(2-(3,4-Difluorophenyl)-5-methylpyrimidin-4-yl)-6-methyl-1H-indazol-5-amine], the IC50 in the test on TGF-β (setting [1]) amounted to 662 nM; with GDF8 (setting [2]), 492 nM.

For the compound `Cc1ccc(C)c(-c2ncc(C)c(Nc3cc4cn[nH]c4cc3C)n2)c1` [Compound 55, N-(2-(2,5-Dimethylphenyl)-5-methylpyrimidin-4-yl)-6-methyl-1H-indazol-5-amine], the IC50 in the test with TGF-β (setting [1]) turned out to be 629 nM; in the test with GDF8 (setting [2]) it was 260 nM.

For the compound `Cc1cc(-c2ncc(C)c(Nc3cc4cn[nH]c4cc3C)n2)ccc1F` [Compound 56, N-(2-(4-Fluoro-3-methylphenyl)-5-methylpyrimidin-4-yl)-6-methyl-1H-indazol-5-amine], the 50% inhibitory concentration (IC50) in the test with TGF-β (inhibition of TGF-β signaling) came to 281 nM; in the test with GDF8 (inhibition of GDF8 signaling), 184 nM.

As for `Cc1cnc(-c2cccc(F)c2)nc1Nc1cc2cn[nH]c2cc1F` [Compound 57, 6-Fluoro-N-(2-(3-fluorophenyl)-5-methylpyrimidin-4-yl)-1H-indazol-5-amine], the IC50 amounted to 1820 nM with TGF-β (setting [1]) and 852 nM in the test with GDF8 (setting [2]).

`Cc1cccc(-c2ncc(C)c(Nc3cc4cn[nH]c4cc3F)n2)c1` [Compound 58, 6-Fluoro-N-(2-(3-methylphenyl)-5-methylpyrimidin-4-yl)-1H-indazol-5-amine]: the IC50 in the test on TGF-β (setting [1]) was found to be 808 nM; in the test with GDF8 (setting [2]), 394 nM.

In the case of `Cc1ccc(C)c(-c2ncc(C)c(Nc3cc4cn[nH]c4cc3F)n2)c1` [Compound 59, 6-Fluoro-N-(2-(2,5-dimethylphenyl)-5-methylpyrimidin-4-yl)-1H-indazol-5-amine], the IC50 with TGF-β (setting [1]) came to 558 nM; in the test on GDF8 (setting [2]) it was 332 nM.

Regarding `Cc1cnc(-c2ccc(F)c(F)c2)nc1Nc1cc2cn[nH]c2cc1F` [Compound 60, 6-Fluoro-N-(2-(3,4-difluorophenyl)-5-methylpyrimidin-4-yl)-1H-indazol-5-amine], the half-inhibitory concentration (IC50) in the test on TGF-β (setting [1]) is 1040 nM; with GDF8 (setting [2]), 454 nM.

Turning to `Cc1cc(-c2ncc(C)c(Nc3cc4cn[nH]c4cc3F)n2)ccc1F` [Compound 61, 6-Fluoro-N-(2-(4-fluoro-3-methylphenyl)-5-methylpyrimidin-4-yl)-1H-indazol-5-amine], the IC50 in the test with TGF-β (setting [1]) amounted to 535 nM; with GDF8 (setting [2]), 241 nM.
